Data from patent US7662810B2, “2-arylmethylazetidine carbapenem derivatives and preparation thereof” (Korea Research Institute of Chemical Technology, priority 2004, dated 2010).
Values after ≈ are worked out from the molar mass of the structure shown. Each block holds one compound with its values, some of them ahead of it.

How the values were obtained:
[1] = biological target: T1, Dihydropeptidase-1 (DHP-1) (Sus scrofa, UniProt P22412)
T1 sequence (P22412 17-384): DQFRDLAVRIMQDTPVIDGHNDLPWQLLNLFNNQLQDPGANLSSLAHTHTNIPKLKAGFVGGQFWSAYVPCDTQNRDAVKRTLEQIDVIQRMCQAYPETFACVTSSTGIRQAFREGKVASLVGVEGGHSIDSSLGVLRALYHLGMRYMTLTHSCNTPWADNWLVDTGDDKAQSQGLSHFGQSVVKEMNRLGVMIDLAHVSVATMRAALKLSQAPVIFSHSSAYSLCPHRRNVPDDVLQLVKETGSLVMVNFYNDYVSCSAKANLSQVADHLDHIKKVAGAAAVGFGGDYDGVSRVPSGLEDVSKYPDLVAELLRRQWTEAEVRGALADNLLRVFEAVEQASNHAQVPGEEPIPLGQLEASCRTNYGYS
Procedure: The rate of degradation of the inventive compounds by the action of DHP-1 enzyme extracted from hog kidney was determined as follow.
0.2 unit of the enzyme was allowed to react with the above solution at 30° C., and the absorbance at 299 nm of the remaining medicament was measured to determine the degradation rate. The absorbance was measured at 0, 0.5, 1, 2 and 4 hour points, and T1/2, the time when the concentration of the medicament become the half, was obtained by regression analysis.

[2] = system: Enterobacter cloacae 1321 E; assay: Measurement of Minimum Inhibitory Concentration (MIC); type: cell-based
Procedure: (§1) The antibacterial activities of the compounds of the present invention prepared in the above Examples against Gram-positive and Gram-negative bacteria, MRSA and QRS were tested as follows.
(§2) Respective bacterial strains were inoculated into 3 ml of Fleisch extract broth (beef extract 1%, peptone 1%, NaCl 0.3%, Na2HPO4.12H2O 0.2%, pH 7.4-7.5. 10% horse serum was supplemented for Streptococcus pyogenes and S. facium) and cultured on a shaking incubator at 37° C. for 18 hours. About 10^4 CFU/spot of the cultured bacterial strains were inoculated onto Müller-Hinton agar plates containing serial double dilutions (final concentration of 0.002 to 100 μg/ml) of a test compound employing an automatic inoculator (Dynatech, USA), and incubated at 37° C. for 18 hours. When the incubation was completed, the minimum inhibitory concentration was determined. Meropenem (Yuhan corporation, Korea) and vancomycin (Cj Inco., Korea) were used as standard antibiotics, respectively.

[3] = system: Enterobacter cloacae P 99; assay: as above; type: cell-based
Procedure: as §1, §2

Escherichia coli 078 = assay: as above; type: cell-based
Procedure: as §1, §2

Escherichia coli 1507 E = assay: as above; type: cell-based
Procedure: as §1, §2

Escherichia coli DC 0 = assay: as above; type: cell-based
Procedure: as §1, §2

Escherichia coli DC 2 = assay: as above; type: cell-based
Procedure: as §1, §2

Escherichia coli TEM = assay: as above; type: cell-based; settings: Escherichia coli
Procedure: as §1, §2

[4] = system: Klebsiella aerogenes 1522 E; assay: as above; type: cell-based
Procedure: as §1, §2

[5] = system: Klebsiella oxytoca 1082 E; assay: as above; type: cell-based
Procedure: as §1, §2

[6] = system: Salmonella typhimurium 179; assay: as above; type: cell-based; settings: Salmonella enterica, TYPHIMURIUM
Procedure: as §1, §2

[7] = system: Staphylococcus aureus 285; assay: as above; type: cell-based
Procedure: as §1, §2

[8] = system: Staphylococcus aureus 503; assay: as above; type: cell-based
Procedure: as §1, §2

[9] = system: Staphylococcus faecium MD 8b; assay: as above; type: cell-based; settings: Staphylococcus, MD8B
Procedure: as §1, §2

[10] = system: Staphylococcus pyogenes 308A; assay: as above; type: cell-based; settings: Staphylococcus aureus, 308A
Procedure: as §1, §2

[11] = system: Staphylococcus pyogenes 77A; assay: as above; type: cell-based; settings: Staphylococcus aureus, 77A
Procedure: as §1, §2

[12] = system: Staphylococcus aureus 121E; assay: Measurement of Minimum Inhibitory Concentration (MIC), MRSA; type: cell-based; settings: Staphylococcus aureus
Procedure: as §1, §2

[13] = system: Staphylococcus aureus 208E; assay: as above; type: cell-based; settings: Staphylococcus aureus
Procedure: as §1, §2

[14] = system: Staphylococcus aureus 256E; assay: as above; type: cell-based; settings: Staphylococcus aureus
Procedure: as §1, §2

[15] = system: Staphylococcus aureus 690E; assay: as above; type: cell-based; settings: Staphylococcus aureus
Procedure: as §1, §2

[16] = system: Staphylococcus aureus 692E; assay: as above; type: cell-based; settings: Staphylococcus aureus
Procedure: as §1, §2

[17] = system: Staphylococcus aureus 693E; assay: as above; type: cell-based; settings: Staphylococcus aureus
Procedure: as §1, §2

[18] = system: Staphylococcus aureus 694E; assay: as above; type: cell-based; settings: Staphylococcus aureus
Procedure: as §1, §2

[19] = system: Staphylococcus aureus 695E; assay: as above; type: cell-based; settings: Staphylococcus aureus
Procedure: as §1, §2

[20] = system: Staphylococcus aureus 697E; assay: as above; type: cell-based; settings: Staphylococcus aureus
Procedure: as §1, §2

[21] = system: Staphylococcus aureus 88E; assay: as above; type: cell-based; settings: Staphylococcus aureus
Procedure: as §1, §2

[22] = system: Staphylococcus aureus 179; assay: Measurement of Minimum Inhibitory Concentration (MIC), QRS; type: cell-based; settings: Staphylococcus aureus, 179
Procedure: as §1, §2

[23] = system: Staphylococcus aureus 241; assay: as above; type: cell-based; settings: Staphylococcus aureus, 241
Procedure: as §1, §2

[24] = system: Staphylococcus aureus 293; assay: as above; type: cell-based; settings: Staphylococcus aureus, 293
Procedure: as §1, §2

[25] = system: Staphylococcus epidermidis 178; assay: as above; type: cell-based; settings: Staphylococcus epidermidis, 178
Procedure: as §1, §2

[26] = system: Staphylococcus epidermidis 291; assay: as above; type: cell-based; settings: Staphylococcus epidermidis, 291
Procedure: as §1, §2

- Relative T1/2 [1]: 1.38
- T1/2 (time when the concentration of the medicament become the half) [1]: 25.24
Structure (SMILES): Cc1ccc(CN2CC(SC3=C(C(=O)[O-])N4C(=O)[C@H]([C@@H](C)O)[C@H]4[C@H]3C)C2)cc1.[K+] [Exam. 23, Potassium(1R,5S,6S)-2-[1-(4-methylbenzyl)-azetidine-3-yl-thio]-6-[(1R)-1-hydroxylethyl]-1-methylcarbapen-2-em-3-carboxylate]

- Relative T1/2 [1]: 1.54
- T1/2 (time when the concentration of the medicament become the half) [1]: 28.16
Structure (SMILES): COc1cccc(CN2CC(SC3=C(C(=O)[O-])N4C(=O)[C@H]([C@@H](C)O)[C@H]4[C@H]3C)C2)c1.[K+] [Exam. 15, Potassium(1R,5S,6S)-2-[1-(3-methoxybenzyl)-azetidine-3-yl-thio]-6-[(1R)-1-hydroxylethyl]-1-methylcarbapen-2-em-3-carboxylate]

Second part, the compound before the results:

Structure (SMILES): C[C@H](c1ccccc1)N1CC(SC2=C(C(=O)[O-])N3C(=O)[C@H]([C@@H](C)O)[C@H]3[C@H]2C)C1.[K+] [Exam. 21, Potassium(1R,5S,6S)-2-{1-[(1R)-1-phenylethyl]-azetidine-3-yl-thio}-6-[(1R)-1-hydroxylethyl]-1-methylcarbapen-2-em-3-carboxylate]
- Relative T1/2 [1]: 1.88
- T1/2 (time when the concentration of the medicament become the half) [1]: 38.43

Structure (SMILES): CC(c1ccc(Br)cc1)N1CC(SC2=C(C(=O)[O-])N3C(=O)[C@H]([C@@H](C)O)[C@H]3[C@H]2C)C1.[K+] (stereo partly drawn) [Exam. 24, Potassium(1R,5S,6S)-2-{1-[1-(4-bromophenyl)ethyl]-azetidine-3-yl-thio}-6-[(1R)-1-hydroxylethyl]-1-methylcarbapen-2-em-3-carboxylate]
- Relative T1/2 [1]: 1.08
- T1/2 (time when the concentration of the medicament become the half) [1]: 19.71

Structure (SMILES): CN[C@H](CC(C)C)C(=O)N[C@H]1C(=O)N[C@@H](CC(N)=O)C(=O)N[C@H]2C(=O)N[C@H]3C(=O)N[C@H](C(=O)N[C@H](C(=O)O)c4cc(O)cc(O)c4-c4cc3ccc4O)[C@H](O)c3ccc(c(Cl)c3)Oc3cc2cc(c3O[C@@H]2O[C@H](CO)[C@@H](O)[C@H](O)[C@H]2O[C@H]2C[C@](C)(N)[C@H](O)[C@H](C)O2)Oc2ccc(cc2Cl)[C@H]1O [Vancomycin, vancomycin, reference compound]
- MIC [2]: 100 µg/mL (≈ 69 µM)
- MIC [3]: 100 µg/mL (≈ 69 µM)
- MIC (Escherichia coli 078): 100 µg/mL (≈ 69 µM)
- MIC (Escherichia coli 1507 E): 100 µg/mL (≈ 69 µM)
- MIC (Escherichia coli DC 0): 100 µg/mL (≈ 69 µM)
- MIC (Escherichia coli DC 2): 50 µg/mL (≈ 34.5 µM)
- MIC (Escherichia coli TEM): 100 µg/mL (≈ 69 µM)
- MIC [4]: 100 µg/mL (≈ 69 µM)
- MIC [5]: 100 µg/mL (≈ 69 µM)
- MIC [6]: 100 µg/mL (≈ 69 µM)
- MIC [7]: 0.391 µg/mL (≈ 0.27 µM)
- MIC [8]: 0.391 µg/mL (≈ 0.27 µM)
- MIC [9]: 0.391 µg/mL (≈ 0.27 µM)
- MIC [10]: 0.781 µg/mL (≈ 0.539 µM)
- MIC [11]: 0.391 µg/mL (≈ 0.27 µM)
- MIC [12]: 0.781 µg/mL (≈ 0.539 µM)
- MIC [13]: 0.781 µg/mL (≈ 0.539 µM)
- MIC [14]: 0.781 µg/mL (≈ 0.539 µM)
- MIC [15]: 0.391 µg/mL (≈ 0.27 µM)
- MIC [16]: 0.781 µg/mL (≈ 0.539 µM)
- MIC [17]: 1.56 µg/mL (≈ 1.08 µM)
- MIC [18]: 1.56 µg/mL (≈ 1.08 µM)
- MIC [19]: 1.56 µg/mL (≈ 1.08 µM)
- MIC [20]: 0.781 µg/mL (≈ 0.539 µM)
- MIC [21]: 0.781 µg/mL (≈ 0.539 µM)
- MIC [22]: 0.781 µg/mL (≈ 0.539 µM)
- MIC [23]: 0.781 µg/mL (≈ 0.539 µM)
- MIC [24]: 0.781 µg/mL (≈ 0.539 µM)
- MIC [25]: 1.56 µg/mL (≈ 1.08 µM)
- MIC [26]: 1.56 µg/mL (≈ 1.08 µM)
